Results published in article PMC6754133 (PLoS ONE, 2019).
Read-outs that look alike come from different tables or passages of the source.

Experiments:
DAOY cells [1] = assay: Neurosphere formation assay; type: cell-based, human; conditions: Homo sapiens, Daoy, 168 h, read-out: Inhibition of NS formation, wells
Experimental: (§1) The final concentration of test compounds in the wells was 10 μM. Cells were incubated at 37 °C for at least seven days. After incubation percent of wells positive with neural stem cell-derived sphere colonies were calculated for each test condition and compared.

Hh/SMO pathway = assay: Gli-Luciferase functional assay, NIH 3T3 Gli-RE cells stimulated with ShhN; type: cell-based
Experimental: After 24 hours, when the cells reached confluency, the culture medium was replaced with 80 μL per well of assay medium [Optimem ± 10 mM HEPES ± 1 mM Sodium Pyruvate + 1× MEM NEAA]. […] Then the cells were stimulated by addition of either ShhN-conditioned media or control media (DMEM±10%BCS) at a final concentration of 10%. Following incubation of the plate for at least 28 hours at 37°C, the cells were simultaneously lysed and supplemented with a luciferase substrate by addition of equal volume of Steady-Glo reagent (Promega, E2520) directly to the assay media. Plates were mixed by pipetting, centrifuged to eliminate foam, incubated for 10 minutes, and analyzed using Perkin Elmer Viktor X luminescence plate reader. The results were analyzed using a non-linear regression (Prism 6, GraphPad Software, La Jolla, CA). Data were normalized to the maximal response observed for ShhN-stimulated cells in the same experiment. A sigmoidal-dose response curve was used as a model for data analysis and IC50 value calculation.

[2] = molecular target: Mitogen-activated protein kinase MLT (MLTK_HUMAN); design: method as in earlier work; conditions: S3 Table; ref [1] Davis MI et al., Nat Biotechnol. 2011; cited from earlier work
MB-PDX cells = assay: Neurosphere formation assay; type: cell-based, human; conditions: Homo sapiens, 168 h, read-out: Inhibition of NS formation, wells
Experimental: as §1

DAOY cells [3] = assay: cells; conditions: Homo sapiens, 72 h, read-out: Cell viability assay IC50
[4] = molecular target: Abelson tyrosine-protein kinase 2 (ABL2_HUMAN); conditions: S2/S3 Table; ref [1] Davis MI et al., Nat Biotechnol. 2011; cited from earlier work
[5] = system: firefly luciferase under control of cAMP response element (CRE); assay: CRE-luciferase counter assay in HEK293s cells; type: cell-based; conditions: different concentrations
Experimental: (a) The drugs were tested at different concentrations in HEK293s cells stably transfected with firefly luciferase under control of cAMP response element (CRE) (pGL4.29[luc2P/CRE/Hygro], Promega). […] Raw, non-normalized luminescence values are presented, to facilitate the assessment of the extent of inhibition. Shown is a single representative experiment out of the multiple experiments performed on different days. (Mean ± SD)

[6] = system: Platelet-derived growth factor receptor beta (PGFRB_HUMAN); design: method as in earlier work; conditions: S2/S3 Table; ref [1] Davis MI et al., Nat Biotechnol. 2011; cited from earlier work
Gli-1 mRNA = assay: qRT-PCR of Gli-1 mRNA in MB-PDX xenograft tumors; type: in vivo, mouse
Experimental: NSG mice, 4–6 weeks old, were injected subcutaneously at shoulders and flanks with 1 × 10^6 viable MB-PDX cells in 1:1 HBSS and gelatinous protein mixture Matrigel. […] The tumor size was measured three times a week with a caliper, and tumor volumes were calculated according to the formula (length × width × width × 0.5). At day 42 post-grafting, all mice were euthanized by isoflurane inhalation and cervical dislocation. Tumors were harvested and stored for qRT-PCR analysis.
Both post-vivo MB-PDX cells and Math1-Cre; ptch1-flox/flox cells were analyzed for Gli-1 mRNA expression. For that, total RNA was extracted from dissociated single cells using QIAGEN RNease Mini Kit and cDNA was prepared using 1μg RNA with iScript cDNA Synthesis Kit (Bio-Rad). SYBR green-based QPCR was performed using murine primers listed as below (GLI1, Forward 5’- [sequence]-3’, Reverse 5’-[sequence]-3’, GAPDH Forward 5'-[sequence] -3', Reverse 5'-[sequence]-3'). mRNA levels were normalized to GAPDH (dCt = Ct gene of interest–Ct GAPDH) and reported as relative mRNA expression (ddCt = 2-^(dCt sample–dCt control)) in fold change.

[7] = molecular target: Carbonic anhydrase 1 (CAH1_HUMAN); conditions: S2/S3 Table; ref [2] Parkkila S et al., Bioorg Med Chem Lett. 2009; cited from earlier work

Cc1cn(-c2cc(NC(=O)c3ccc(C)c(Nc4nccc(-c5cccnc5)n4)c3)cc(C(F)(F)F)c2)cn1 [Nilotinib]
inhibition at 10 µM (DAOY cells [1]): > 90% | IC50 (Hh/SMO pathway; Mus musculus, NIH3T3, read-out: Hh/SMO pathway inhibition IC50, NIH3T3 Gli-RE cells, ShhN-conditioned media, n = 3): 374 nM | Inhibition of ShhN-induced Hh signaling (in words) (Hh/SMO pathway; NIH 3T3 Gli-RE cells, ShhN stimulated): inhibited ShhN-induced Hh signaling in a dose-dependent manner | Span of concentration response curve (Hh/SMO pathway; data as percent of the maximum luminescence in the absence of antagonists, Fig 4): 95.05 | IC50 (Hh/SMO pathway; read-out: Hh/SMO pathway inhibition IC50, NIH3T3 Gli-RE cells, ShhN-conditioned media, n = 3): 374 nM | Kd/Ki Value [2]: 11 nM | inhibition at 10 µM (MB-PDX cells): > 90% | IC50 (DAOY cells [3]): 6000 nM | Kd/Ki Value [4]: 26 nM | Effect on CRE-driven luciferase activity (independent of SMO) [5]: lack of dose-dependent effect | Kd/Ki Value [6]: 73 nM | Gli-1 mRNA expression in tumors versus vehicle (Gli-1 mRNA): significant reduction in the Gli-1 mRNA expression levels | Kd/Ki Value [7]: 29.3 nM
